Read-outs that look alike come from different tables or passages of the source.
Columns and labels:
ovary-removed rats [1] = conditions: for Bone volume Vol.: (bone volume)/(metaphysis volume) × 100; for Trabecular volume Vol.: (trabecular volume)/(epiphysis volume) × 100; for BMD / Stiffness Max. load / Stiffness Stiff.: femur; for BMD / Stiffness Max. load / Stiffness Stiff. / Blood calcium density Conc.: oophorectomy rats, oral once a day 8 weeks; for Stiffness Relativ. Stiff.: relative Max. Load value, OVX control = 1.00; for Trabecular volume Relativ Vol / BMD Relativ. Density / Blood calcium density Relativ. Conc. / Bone volume Relativ Vol: relative to OVX control = 1.00
Experimental: (§1) In order to investigate the effects of the inventive mutual salts on BMD, bone stiffness, serum cholesterol level and calcium density, in vivo tests were carried out as follows.
(§2) Also, 1.5% carboxymethylcellulose alone was administrated in a same manner to each of ovary-removed rats (group OVX) and normal rats (control, group Sham). After 8 weeks, a femur sample was obtained from each test groups to measure BMD, maximum load, stiffness, trabecular volume of epiphysis, bone volume of metaphysis, blood cholesterol level and blood calcium density.

ovary-removed rats [2] = experiment: In vivo test: blood cholesterol level; parameters: species or system rats (Sprague-Dawley); conditions: for Total blood cholesterol Conc.: oophorectomy rats, oral once a day 8 weeks; for Total blood cholesterol Relativ. Conc.: relative to OVX control = 1.00
Experimental: as §1, §2

[3] = in words, as compared with the individual raloxifene hydrochloride or alendronate

NCCCC(O)(P(=O)(O)O)P(=O)(O)O [Alendronate, sodium alendronate trihydrate]
Bone volume Vol. (ovary-removed rats [1]; 1.0 mg/kg (T1)): 56.46 ± 17.93%
Trabecular volume Vol. (ovary-removed rats [1]; 1.0 mg/kg (T1)): 20.27 ± 7.76%
BMD (ovary-removed rats [1]; 1.0 mg/kg (T1)): 92.57 ± 5.64 mg/cm^2
Stiffness Max. load (ovary-removed rats [1]; 1.0 mg/kg (T1)): 19.22 ± 2.14 N
Stiffness Stiff. (ovary-removed rats [1]; 1.0 mg/kg (T1)): 19.02 ± 3.86 N/mm
Stiffness Relativ. Stiff. (ovary-removed rats [1]; 1.0 mg/kg (T1)): 0.88
Trabecular volume Relativ Vol (ovary-removed rats [1]; 1.0 mg/kg (T1)): 1.75
Total blood cholesterol Conc. (ovary-removed rats [2]; 1.0 mg/kg (T1)): 98.387 ± 17.23 mg/dL
Total blood cholesterol Relativ. Conc. (ovary-removed rats [2]; 1.0 mg/kg (T1)): 0.93

Cl.O=C(c1ccc(OCCN2CCCCC2)cc1)c1c(-c2ccc(O)cc2)sc2cc(O)ccc12 [Raloxifene hydrochloride, 6-hydroxy-2-(4-hydroxyphenyl)benzo[b]thien-3-yl 4-[2-(1-piperidinyl)ethoxy]phenyl methanone hydrochloride]
Bone volume Vol. (ovary-removed rats [1]; 1.9 mg/kg (T2)): 75.96 ± 17.61%
Bone volume Vol. (ovary-removed rats [1]; 5.6 mg/kg (T3)): 65.56 ± 15.33%
Trabecular volume Vol. (ovary-removed rats [1]; 1.9 mg/kg (T2)): 11.25 ± 2.57%
Trabecular volume Vol. (ovary-removed rats [1]; 5.6 mg/kg (T3)): 15.15 ± 4.08%
BMD (ovary-removed rats [1]; 1.9 mg/kg (T2)): 91.09 ± 6.98 mg/cm^2
Stiffness Max. load (ovary-removed rats [1]; 1.9 mg/kg (T2)): 30.00 ± 3.24 N
Stiffness Stiff. (ovary-removed rats [1]; 1.9 mg/kg (T2)): 33.07 ± 9.55 N/mm
BMD (ovary-removed rats [1]; 5.6 mg/kg (T3)): 93.76 ± 6.22 mg/cm^2
Stiffness Max. load (ovary-removed rats [1]; 5.6 mg/kg (T3)): 32.09 ± 4.37 N
Stiffness Stiff. (ovary-removed rats [1]; 5.6 mg/kg (T3)): 38.64 ± 15.2 N/mm
Blood calcium density Conc. (ovary-removed rats [1]; 1.9 mg/kg (T2)): 9.20 ± 0.33 mg/dL
Blood calcium density Conc. (ovary-removed rats [1]; 5.6 mg/kg (T3)): 9.42 ± 0.23 mg/dL
Stiffness Relativ. Stiff. (ovary-removed rats [1]; 1.9 mg/kg (T2)): 1.37
Stiffness Relativ. Stiff. (ovary-removed rats [1]; 5.6 mg/kg (T3)): 1.46
BMD Relativ. Density (ovary-removed rats [1]; 1.9 mg/kg (T2)): 1.17
Blood calcium density Relativ. Conc. (ovary-removed rats [1]; 1.9 mg/kg (T2)): 0.98
Bone volume Relativ Vol (ovary-removed rats [1]; 1.9 mg/kg (T2)): 2.64
Trabecular volume Relativ Vol (ovary-removed rats [1]; 1.9 mg/kg (T2)): 0.97
BMD Relativ. Density (ovary-removed rats [1]; 5.6 mg/kg (T3)): 1.20
Blood calcium density Relativ. Conc. (ovary-removed rats [1]; 5.6 mg/kg (T3)): 1.00
Bone volume Relativ Vol (ovary-removed rats [1]; 5.6 mg/kg (T3)): 2.28
Trabecular volume Relativ Vol (ovary-removed rats [1]; 5.6 mg/kg (T3)): 1.31
Total blood cholesterol Conc. (ovary-removed rats [2]; 1.9 mg/kg (T2)): 41.40 ± 9.71 mg/dL
Total blood cholesterol Conc. (ovary-removed rats [2]; 5.6 mg/kg (T3)): 40.83 ± 14.2 mg/dL
Total blood cholesterol Relativ. Conc. (ovary-removed rats [2]; 1.9 mg/kg (T2)): 0.39
Total blood cholesterol Relativ. Conc. (ovary-removed rats [2]; 5.6 mg/kg (T3)): 0.39

raloxifene alendronate pentahydrate
Bone volume Vol. (ovary-removed rats [1]; 2.9 mg/kg (T4)): 68.00 ± 9.00%
Trabecular volume Vol. (ovary-removed rats [1]; 2.9 mg/kg (T4)): 17.81 ± 2.49%
BMD (ovary-removed rats [1]; 2.9 mg/kg (T4)): 99.28 ± 6.25 mg/cm^2
Stiffness Max. load (ovary-removed rats [1]; 2.9 mg/kg (T4)): 26.50 ± 0.73 N
Stiffness Stiff. (ovary-removed rats [1]; 2.9 mg/kg (T4)): 35.34 ± 11.3 N/mm
BMD, bone stiffness, trabecular volume and bone volume (ovary-removed rats [1]; [3]): markedly enhances
blood calcium level (ovary-removed rats [1]; [3]): effectively controls
Blood calcium density Conc. (ovary-removed rats [1]; 2.9 mg/kg (T4)): 6.69 ± 0.94 mg/dL
Stiffness Relativ. Stiff. (ovary-removed rats [1]; 2.9 mg/kg (T4)): 1.21
BMD Relativ. Density (ovary-removed rats [1]; 2.9 mg/kg (T4)): 1.27
Blood calcium density Relativ. Conc. (ovary-removed rats [1]; 2.9 mg/kg (T4)): 0.71
Bone volume Relativ Vol (ovary-removed rats [1]; 2.9 mg/kg (T4)): 2.37
Trabecular volume Relativ Vol (ovary-removed rats [1]; 2.9 mg/kg (T4)): 1.54
blood cholesterol level (ovary-removed rats [2]; [3]): effectively controls
Total blood cholesterol Conc. (ovary-removed rats [2]; 2.9 mg/kg (T4)): 66.86 ± 9.68 mg/dL
Total blood cholesterol Relativ. Conc. (ovary-removed rats [2]; 2.9 mg/kg (T4)): 0.64

From patent US20070082871A1, “Antiresorptive mutual salt of raloxifene and bisphosphonic acid” (HANMI PHARM. CO., LTD., priority 2003, published 2007)
